Measurements published in US20040034107A1, “Ubiquinone Qn for the treatment of pain” (MSE Pharmazeutika GmbH, priority 1999, published 2004).

How the values were obtained:
[1] = treatment of migraine pain with Q-10; type: in vivo
Description: The substances to be used according to the invention can be preferably employed for the treatment of pain which is caused by migraine, dialysis, herpes zoster, cancer, diabetic neuropathy, or generalized pain conditions. The treatment can be done by administration in oral, parenteral, local, inhalative or intranasal form. The kind of administration must be adapted to the pain condition to be treated. […] Good results were achieved already with doses of about 20 mg.
Due to the low dose which is already effective for treating migraine pain, the ubiquinone Qn or its precursors are preferably used in the form of a spray, preferably a nasal spray, according to the invention.

[2] = local treatment of herpes zoster pain; type: in vivo; settings: local application in the form of creams or gels
Text: In the case of herpes zoster, even the local application of Q-10 in the form of creams or gels has even proven useful. It is critical that sufficient amounts of the ubiquinones or ubiquinone precursors arrive at the place in which the pain caused by disturbances of the signal transmission of the nerve system has its origin.

COC1=C(OC)C(=O)C(C/C=C(\C)CC/C=C(\C)CC/C=C(\C)CC/C=C(\C)CC/C=C(\C)CC/C=C(\C)CC/C=C(\C)CC/C=C(\C)CC/C=C(\C)CCC=C(C)C)=C(C)C1=O [Q-10, 2,3-dimethoxy-5-methyl-6-decaprenyl-1,4-benzoquinone]
treatment of migraine ([1]; oral administration, high doses): only with very limited success | elimination of migraine pain ([1]; oral and nasal sprays, small amounts): fast and effective elimination of migraine pain | results in migraine pain ([1]; sprays, doses of about 20 mg): Good results | treatment of herpes zoster pain [2]: proven useful
